Reference: paper PMC4643906, “Interaction of the N-(3-Methylpyridin-2-yl)amide Derivatives of Flurbiprofen and Ibuprofen with FAAH: Enantiomeric Selectivity and Binding Mode” (PLoS ONE, 2015)
Residue numbers refer to the chain shown, from its start. Read-outs that look alike come from different tables or passages of the source.

What was measured:
rat brain FAAH = molecular target: T1, rat brain FAAH (Rattus norvegicus, UniProt P97612); test: Inhibition of [3H]AEA hydrolysis in rat brain homogenates; type: biochemical; settings: for remaining activity at 0.7 µM: 0.7 μM inhibitor; for mode of inhibition (best-fit model) / α / Ki: 0.5–4 μM [3H]AEA; for mode of inhibition (best-fit model): compared with pure competitive model; for interaction with carprofen in multiple inhibition experiments: Dixon plots, together with carprofen
T1 construct: from tissue; host or cells: rat brain (minus cerebellum), washed membrane pellet
T1 sequence (P97612 1-579): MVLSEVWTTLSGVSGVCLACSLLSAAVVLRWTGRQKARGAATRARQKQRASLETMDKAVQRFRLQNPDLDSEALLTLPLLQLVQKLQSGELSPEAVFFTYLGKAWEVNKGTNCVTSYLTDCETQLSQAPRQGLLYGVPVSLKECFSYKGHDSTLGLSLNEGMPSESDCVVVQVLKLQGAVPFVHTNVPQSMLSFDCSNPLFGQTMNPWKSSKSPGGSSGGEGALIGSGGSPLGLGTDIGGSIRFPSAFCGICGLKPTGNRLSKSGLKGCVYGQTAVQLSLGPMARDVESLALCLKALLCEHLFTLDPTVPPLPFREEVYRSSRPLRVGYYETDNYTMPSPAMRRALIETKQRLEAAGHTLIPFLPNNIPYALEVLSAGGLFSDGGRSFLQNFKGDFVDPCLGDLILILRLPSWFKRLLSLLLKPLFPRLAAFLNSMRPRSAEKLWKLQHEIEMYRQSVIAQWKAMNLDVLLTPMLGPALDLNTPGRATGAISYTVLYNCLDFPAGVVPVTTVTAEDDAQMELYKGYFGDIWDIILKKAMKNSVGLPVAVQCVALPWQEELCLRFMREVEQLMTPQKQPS
Protocol: (§1) Brains (minus cerebella) from adult Wistar or Sprague-Dawley rats (killed by decapitation) and from male B6CBAF1/J mice (killed by cervical dislocation), stored at -80°C, were thawed, weighed and homogenized in cold buffer (20 mM HEPES, 1 mM MgCl2 pH 7.0). Homogenates were centrifuged (35,000 g at 4°C for 20 min) before the pellet was resuspended in cold homogenization buffer. Centrifugation and resuspension was repeated twice. The suspension was incubated at 37°C for 15 min to degrade any endogenous substrate able to interfere with the FAAH assay. After centrifugation (35,000 g at 4°C for 20 min), the pellet was resuspended in cold buffer (50 mM Tris-HCl, 1mM EDTA, 3 mM MgCl2, pH 7.4). The protein concentration was determined according to [27] after which the samples were frozen in aliquots at -80°C.
(§2) The assays were performed according to [28] with minor modifications. Briefly, homogenates or cell lysates in assay buffer (10 mM Tris-HCl, 1mM EDTA, pH 7.4) were mixed with substance dissolved in ethanol on ice. Hydrolysis reactions were initiated by addition of substrate ([^3H]AEA in 10 mM Tris-HCl, 1mM EDTA, pH 7.4 containing 10 mg ml^-1 fatty acid-free bovine serum, assay concentration 0.5 μM unless otherwise stated) and incubation at 37°C. For the brain homogenates, hydrolysis at 37°C was allowed to proceed for 10 min (assay volume was 200 μL, with 1 and 0.3 μg/assay protein concentrations of the rat and mouse homogenates, respectively). For the kinetic experiments, the AEA: fatty acid-free bovine serum albumin ratio was kept constant at 1: ~4.5 (μM). Following incubation, reactions were stopped by addition of 400 μL activated charcoal (80 μL activated charcoal + 320 μL 0.5 M HCl) and placement of samples on ice before centrifugation at 2500 rpm for 10 min. Aliquots (200 μL) of the supernatant were analyzed for tritium content by liquid scintillation spectroscopy with quench correction. Sample sizes were chosen on the basis of previous data investigating FAAH inhibitory properties of compounds.
(§3) pI50 and IC50 values were calculated using log(inhibitor) vs. response with variable slope (four parameters) algorithm in the GraphPad Prism computer program (GraphPad Software Inc., San Diego, CA. USA). […] The best fit was chosen by Akaike’s informative criteria. Ki and α values were obtained using the enzyme kinetics mixed model inhibition curve fitting algorithm available in the GraphPad Prism programme. This models the observed velocity v^app at a given substrate concentration where v^app = Vmax ^app/(1 + Km ^app/[S]), Vmax ^app = Vmax/(1+[I]/(αKi)) and Km ^app = Km(1+[I]/Ki)/(1+[I]/(αKi)) (http://www.graphpad.com/guides/prism/6/curve-fitting/index.htm?reg_mixered_model.htm, URL checked 16 October 2015). The model assuming competitive interactions (where α→∞) was also used, and the best fit was chosen by Akaike’s informative criteria. Robust linear regressions for the Dixon plots, which are less sensitive to outliers than the standard least-squares methodology were undertaken using the same computer programme.

mouse brain FAAH [1] = molecular target: T2, mouse brain FAAH (Mus musculus, UniProt O08914); test: Inhibition of [3H]AEA hydrolysis in mouse brain homogenates; type: biochemical; settings: 0.5 μM [3H]AEA
T2 construct: from tissue; host or cells: mouse brain (minus cerebellum), washed membrane pellet
T2 sequence (O08914 1-579): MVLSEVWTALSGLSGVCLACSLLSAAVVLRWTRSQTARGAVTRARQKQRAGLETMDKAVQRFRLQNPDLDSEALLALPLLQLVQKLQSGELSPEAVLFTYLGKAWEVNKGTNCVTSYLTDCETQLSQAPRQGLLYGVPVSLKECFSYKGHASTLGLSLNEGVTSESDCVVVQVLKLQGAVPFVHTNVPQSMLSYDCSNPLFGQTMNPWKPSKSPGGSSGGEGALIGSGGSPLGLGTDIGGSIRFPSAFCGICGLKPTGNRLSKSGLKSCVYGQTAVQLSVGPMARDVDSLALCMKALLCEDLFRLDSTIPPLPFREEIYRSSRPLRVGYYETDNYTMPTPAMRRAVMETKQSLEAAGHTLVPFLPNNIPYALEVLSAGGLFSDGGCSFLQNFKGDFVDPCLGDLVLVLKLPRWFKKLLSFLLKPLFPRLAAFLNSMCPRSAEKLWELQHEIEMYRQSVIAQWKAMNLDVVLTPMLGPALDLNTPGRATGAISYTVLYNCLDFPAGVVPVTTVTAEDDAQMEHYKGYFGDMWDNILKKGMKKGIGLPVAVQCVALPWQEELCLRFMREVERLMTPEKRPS
Protocol: as §1, §2, §3

FAAH^T488A = molecular target: T3, FAAH^T488A (Rattus norvegicus, UniProt P97612, T488A); test: Inhibition of [3H]AEA hydrolysis in lysates of HeLa cells expressing FAAH^T488A; type: biochemical; settings: FAAH^T488A lysate 0.4 μg/assay, 18 h, 0.5 μM [3H]AEA
T3 construct: expressed in transfected cells; host or cells: HeLa cells, pcDNA4 plasmid, lysate
T3 sequence (P97612 1-579 T488A): T1 sequence (P97612 1-579) with T488A

[2] = molecular target: T4, rat wild-type FAAH (FAAH^wt) (Rattus norvegicus, UniProt P97612); test: Inhibition of [3H]AEA hydrolysis in lysates of HeLa cells expressing wild-type FAAH; type: biochemical
T4 construct: expressed in transfected cells; host or cells: HeLa cells, pcDNA4 plasmid, lysate
T4 sequence (P97612 1-579): T1 sequence (P97612 1-579)

mouse brain FAAH [3] = molecular target: T2, mouse brain FAAH; set-up: method as in PMID 26406890; settings: cited from earlier work; for IC50 / pI50: mouse brain homogenates
[4] = rat brain homogenates, 0.5 μM [3H]AEA, read-out: IC50
[5] = rat brain homogenates, 0.5 μM [3H]AEA, read-out: pI50 (converted)
[6] = FAAH^wt + empty vector (0.36 μg/assay) lysates, 18 h, 0.5 μM [3H]AEA
[7] = FAAH^wt lysate 0.04 μg/assay, 18 h, 0.5 μM [3H]AEA
[8] = preliminary experiments, another batch of wild-type FAAH, 1.5–2 μg/assay, 20 min at 37°C, read-out: potencies
[9] = linear mixed inhibition model fit
[10] = linear mixed inhibition model fit, read-out: Ki
[11] = median of Dixon plot intersections, read-out: Ki (Dixon plot)
[12] = rat brain homogenates, 0.5 μM [3H]AEA

SMILES	IC50 (rat brain FAAH; [4]) [µM]	IC50 (rat brain FAAH; [5]) [µM]	nH (Hill slope) (mouse brain FAAH [1])	IC50 [2, 8] [µM]	α (rat brain FAAH; [9])	Ki (rat brain FAAH; [10]) [µM]	Ki (rat brain FAAH; [11]) [µM]	nH (Hill slope) (rat brain FAAH; [12])	also measured
Cc1cccnc1NC(=O)C(C)c1ccc(CC(C)C)cc1 (racemic) [racemic Ibu-AM5, 2-(4-Isobutylphenyl)-N-(3-methylpyridin-2-yl)propanamide]	1.2	1.2	–	–	–	–	–	–	–
Cc1cccnc1NC(=O)[C@H](C)c1ccc(-c2ccccc2)c(F)c1 [(R)-Flu-AM1, (R)-2-(2-fluorobiphenyl-4-yl)-N-(3-methylpyridin-2-yl)propanamide]	0.74	0.741	0.78±0.09	1.6	3.2±1.3	0.63 ± 0.17	0.28	0.90±0.04	nH (FAAH^T488A): 1.47±0.37; IC50 (FAAH^T488A; read-out: IC50): 28 µM; IC50 (FAAH^T488A; read-out: pI50 (converted)): 28.2 µM; nH [2, 6]: 0.99±0.06; IC50 ([2]; FAAH^wt + empty vector (0.36 μg/assay) lysates, 18 h, 0.5 μM [3H]AEA, read-out: IC50): 8 µM; IC50 ([2]; FAAH^wt + empty vector (0.36 μg/assay) lysates, 18 h, 0.5 μM [3H]AEA, read-out: pI50 (converted)): 7.94 µM; nH [2, 7]: 1.02±0.07; IC50 ([2]; FAAH^wt lysate 0.04 μg/assay, 18 h, 0.5 μM [3H]AEA, read-out: IC50): 8.3 µM; IC50 ([2]; FAAH^wt lysate 0.04 μg/assay, 18 h, 0.5 μM [3H]AEA, read-out: pI50 (converted)): 8.32 µM; mode of inhibition (mouse brain FAAH [3]; mouse brain FAAH): competitive; IC50 (mouse brain FAAH [3]): 8.8 µM; pI50 (mouse brain FAAH [3]): 5.05±0.06; remaining activity at 0.7 µM (rat brain FAAH; preincubation 0 min at 37°C): 50 ± 1%; remaining activity at 0.7 µM (rat brain FAAH; preincubation 60 min at 37°C): 39 ± 4%; mode of inhibition (best-fit model) (rat brain FAAH): linear mixed inhibition; reversibility of inhibition (rat brain FAAH; 20-fold dilution after 60 min of preincubation): completely reversible; interaction with carprofen in multiple inhibition experiments (rat brain FAAH; 0.5 μM [3H]AEA): mutually exclusive manner
Cc1cccnc1NC(=O)[C@H](C)c1ccc(CC(C)C)cc1 [(R)-Ibu-AM5, 2-(4-Isobutylphenyl)-N-(3-methylpyridin-2-yl)propanamide]	5.7	5.62	1.50±0.36	8.8	3.1±1.1	10 ± 2.5	9.8	1.05±0.10	IC50 (mouse brain FAAH [1]; read-out: IC50): 53 µM; fold less potent an inhibitor of FAAH than the (S)-enantiomer (rat brain FAAH; rat FAAH): 10 fold; inhibition (rat brain FAAH; rat brain homogenates, 0.5 μM [3H]AEA, read-out: maximum inhibition (best fit)): 92%
Cc1cccnc1NC(=O)[C@@H](C)c1ccc(-c2ccccc2)c(F)c1 [(S)-Flu-AM1]	0.99	1	1.31±0.16	2.4	5.6±3.6	0.79 ± 0.28	0.86	0.94±0.04	IC50 (mouse brain FAAH [3]): 11 µM; pI50 (mouse brain FAAH [3]): 4.96±0.04; mode of inhibition (best-fit model) (rat brain FAAH): linear mixed inhibition
Cc1cccnc1NC(=O)[C@@H](C)c1ccc(CC(C)C)cc1 [(S)-Ibu-AM5, 2-(4-Isobutylphenyl)-N-(3-methylpyridin-2-yl)propanamide]	0.59	0.589	1.33±0.38	0.53	3.2±1.5	0.8 ± 0.21	0.89	0.81±0.08	IC50 (mouse brain FAAH [1]; read-out: IC50): 7 µM; IC50 (mouse brain FAAH [1]; read-out: pI50 (converted)): 6.92 µM; interaction with carprofen in multiple inhibition experiments (rat brain FAAH; 0.5 μM [3H]AEA): mutually exclusive manner
CC(C(=O)O)c1ccc2c(c1)[nH]c1ccc(Cl)cc12 (stereo not shown) [Carprofen, reference compound]	–	–	–	–	–	–	–	1.66±0.13	nH (FAAH^T488A): 2.43±0.37; nH [2, 6]: 4.28±0.41; nH [2, 7]: 3.00±0.31; maximum inhibition (best fit) ([2]; wild-type FAAH lysates, 18 h): 82–91%
Cc1cccnc1NC(=O)Cc1ccc(CC(C)C)cc1 [Ibufenac-AM1, 2-(4-Isobutylphenyl)-N-(3-methylpyridin-2-yl)acetamide]	68	67.6	–	–	–	–	–	–	–
